{"source": "patent US11364227B2", "about": "(priority 2020, dated 2022)", "key": {"[1]": {"assay": "Physical description of opaganib drug substance (solubility, hygroscopicity)", "assay_type": "physicochemical"}, "[2]": {"test_system": "SARS-CoV-2 clinical isolate (2019-nCoV/USA-WA1/2020)", "assay": "Anti-viral activity against SARS-CoV-2 in human bronchial epithelial cell (HBEC, EpiAirway) air-liquid-interface cultures, viral titer by TCID50", "assay_type": "cell-based"}, "[3]": {"test_system": "COVID-19 infection (SARS-CoV-2)", "assay": "Pilot / compassionate use study of opaganib in patients hospitalized with COVID-19 pneumonia", "assay_type": "in vivo, human", "experimental": "Patients entered a screening period of up to 1 week. Eligible patients entered the treatment period for up to 2 weeks. All participants were followed for 2 weeks after their last dose of study drug, at the end of the 2 week treatment period, or once they had 2 consecutive daily negative viral swabs for the COVID-19 virus or at after premature drug discontinuation prior to Day 14. The maximum duration of study participation was 35 days […].\nEach dose is administered with food or 15-30 minutes after tube-feeding, where appropriate. […] These patients had moderate to severe COVID-19-related pneumonia with hypoxia on supplemental oxygen.\nFive patients were included in the analysis, and for comparison purposes, we used a control group with same-sex, same-severity patients (baseline characteristics). Univariate comparisons between the groups were performed with chi-square test for categorical variables and t-test or MannWhitney U-test for continuous variables, as appropriate. Time variables were compared with Cox proportional hazard regression, adjusted for age and background illnesses. CRP and lymphocyte changes were compared utilizing a repeated measures general linear model with a Bonferroni correction for multiple comparison."}, "[4]": {"test_system": "COVID-19 pneumonia (SARS-CoV-2)", "assay": "Randomized, double-blind, placebo-controlled Phase 2a study of opaganib in COVID-19 pneumonia", "assay_type": "in vivo, human", "description": "This was a phase 2a, proof of concept, multi-center randomized double-blind, parallel arm, placebo-controlled study. After informed consent was obtained, patients entered a screening phase for no more than 3 days, to determine eligibility. […] Treatment assignments remained blinded to the patient, investigator and hospital staff, as well as the sponsor. As there was no consensus for a definitive treatment specifically targeting the SARS-CoV-2 virus causing COVID-19 (Wilson, 2020), standard of care referred to regional, institutional or physician directed therapies, that were implemented during the COVID-19 pandemic.\nStudy drug was to be administered every day for 14 days (Day 1 to Day 14), unless the patient had been discharged from the hospital without requiring supplemental oxygen, in which case study drug would only be administered to Day 10.\nTwo patients were randomized in each group but not treated. […] Two patients in the opaganib arm experienced adverse events such that study drug was terminated, while one placebo patient was terminated due to an adverse event.\nThe primary efficacy endpoint calculated for each patient the area under the curve of the supplemental oxygen requirement through day 14, using the trapezoidal rule after subtracting the baseline oxygen requirement at each day. Days where no supplementary oxygen was needed, were recorded as 0. If several values of oxygen requirement (L/min) are recorded in a certain day, for the primary analysis the highest of these values were taken. In the primary analysis, for patients who die before Day 14, or require intubation and mechanical ventilation, missing daily values were assigned the maximal supplemental oxygen flow requirement of 8 L/min. For patients discharged from hospital on supplemental oxygen prior to Day 14, if no values were collected by the site after discharge, the oxygen requirement (L/min) on the day of discharge were to be assigned thereafter for each day to Day 14.\nSupplemental oxygen requirement up to Day 14 was collected even if a patient discontinued treatment prior to Day 14 but continued in the study to Day 14. Further, it was assumed that loss to follow up such that vital status up to Day 14 were missing is unlikely. Therefore, the primary analysis assumed that in case that all supplemental oxygen values are missing after treatment discontinuation, the last value is carried forward—until Day 14, or death, if occurred before. A sensitivity analysis to the above missing data handling approach was performed using an AUC summary statistics approach, in which groups AUC is calculated from the estimated parameters of a Repeated-Measures model.\nWithin the mITT cohort, two subjects withdrew their consent due to grade 1 gastrointestinal AEs."}, "[5]": {"test_system": "human bronchial epithelial cells (HBEC)", "conditions": "highest concentration tested, 11.25 μg/ml"}, "[6]": {"test_system": "ARDS induced thrombosis", "assay": "Rat venous stasis (Wessler) model after LPS-induced lung injury (ARDS induced thrombosis)", "assay_type": "in vivo, Sprague-Dawley rats", "conditions": "250 mg/kg oral gavage 3, 24, 48, 72 h post LPS instillation; rat venous stasis 30 min", "description": "This study assessed the efficacy of ABC294640 to reduce the incidence of adverse thromboembolic events in situ in acute respiratory distress syndrome (ARDS) conditions using a rat venous stasis model. This assay is designed to measure thrombotic risks following LPS-induced lung injury. LPS-induced lung injury is one of the most commonly used rodent models for ARDS and was described to mimic the neutrophilic inflammatory response observed in ARDS patients. The mechanism of LPS-induced ARDS is based on damage to endothelial cells and a systemic inflammatory response. […]\nSprague-Dawley rats (male) weighing between 275 and 400 g were used for this study. […] The body weight was recorded before the instillation and 24, 48 and 72 hours post-instillation.\nIn this study, ARDS was induced by intratracheal instillation of LPS. […] The segment was then excised and its content scored. […]\n• 1. Prior LPS or saline instillation, the functional respiratory parameters of all rat was assessed by whole-body plethysmography and SpO2 was evaluated on conscious rat with a collar probe pulse oximeter. […] The respiratory rate, the Penh and the inspiratory/expiratory time measurements was analyzed. • 2. […]\n• 5. Rats were evaluated periodically to ensure animal well-being (general behavior and daily body weight). • 6. […] SpO2 and whole-body plethysmography were also evaluated 24, 48 and 72 hours post-instillation. • 8. […]"}, "[7]": {"conditions": "of 6 moderate-to-severe patients treated, opaganib plus standard-of-care"}}}
{"smiles": "Cl.O=C(NCc1ccncc1)C12CC3CC(C1)CC(c1ccc(Cl)cc1)(C3)C2", "note": "[opaganib, 3-(4-chlorophenyl)-adamantane-1-carboxylic acid (pyridin-4-ylmethyl) amide, hydrochloride salt]", "values": [{"measurement": "solubility in water and ethyl acetate", "setting": "[1]", "value": "practically insoluble"}, {"measurement": "hygroscopicity", "setting": "[1]; solid", "value": "non-hygroscopic"}, {"measurement": "concentration at which complete inhibition of infectious virus production starts", "setting": "[2]; SARS-CoV-2-infected HBEC, 3 days incubation", "value": 1, "unit": "µg/mL"}, {"measurement": "infectious virus production", "setting": "[2]; SARS-CoV-2-infected HBEC, 3 days incubation, 0.05 to 11.25 μg/ml", "value": "dose-dependent reduction"}, {"measurement": "inhibition at 0.05 µg/mL", "setting": "[2]; Severe acute respiratory syndrome coronavirus 2, Epithelial cell, read-out: inhibition of infectious virus production", "value": "> 90", "unit": "%"}, {"measurement": "HR for time to weaning from HFNC, cases vs. controls", "setting": "[3]; Cox regression, 95% CI: 0.07-1.7, p=0.2", "value": 0.3}, {"measurement": "HR for time to ambient air, cases vs. controls", "setting": "[3]; Cox regression, 95% CI: 0.15-1.5", "value": 0.4}, {"measurement": "Clinical Assessment", "setting": "[3]; Patient 1 (14 d), started as severe on maximal OptiFlow Apr. 3, 2020, RA = room air", "value": "Apr. 3, 2020; RA by 16/4. As of 22/4, one negative"}, {"measurement": "Lymphocytes, most recent", "setting": "[3]; Patient 1 (14 d on opaganib), baseline 1.6, Apr. 17, 2020", "value": "2.8 (Apr. 17, 2020) 10^3/mm^3"}, {"measurement": "CRP, most recent", "setting": "[3]; Patient 1 (14 d on opaganib), baseline 15.1, Apr. 17, 2020", "value": "1 (Apr. 17, 2020) mg/L"}, {"measurement": "Clinical Assessment", "setting": "[3]; Patient 2 (14 d), started as severe+, planning for intubation Apr. 7, 2020, RA = room air, D/C = discharged", "value": "Apr. 7, 2020; RA by Apr. 20, 2020, D/C on Apr. 22, 2020"}, {"measurement": "Lymphocytes, most recent", "setting": "[3]; Patient 2 (14 d on opaganib), baseline 1.1, Apr. 17, 2020", "value": "2.1 (Apr. 17, 2020) 10^3/mm^3"}, {"measurement": "CRP, most recent", "setting": "[3]; Patient 2 (14 d on opaganib), baseline 14.2, Apr. 17, 2020", "value": "4.8 (Apr. 17, 2020) mg/L"}, {"measurement": "Clinical Assessment", "setting": "[3]; Patient 3 (7 d), moderate-severe, on OptiFlow Apr. 13, 2020, D/C = discharged", "value": "Apr. 7, 200, D/C on Apr. 19, 2020"}, {"measurement": "Lymphocytes, most recent", "setting": "[3]; Patient 3 (7 d on opaganib), baseline 0.9, Apr. 17, 2020", "value": "1.2 (Apr. 17, 2020) 10^3/mm^3"}, {"measurement": "CRP, most recent", "setting": "[3]; Patient 3 (7 d on opaganib), baseline 10.7, Apr. 17, 2020", "value": "1.7 (Apr. 17, 2020) mg/L"}, {"measurement": "Clinical Assessment", "setting": "[3]; Patient 4 (11 d), started severe+ 70% OptiFlow on Apr. 13, 2020, RA = room air", "value": "RA on Apr. 22, 2020"}, {"measurement": "Lymphocytes, most recent", "setting": "[3]; Patient 4 (11 d on opaganib), baseline 1.2, Apr. 22, 2020", "value": "1 (Apr. 22, 2020) 10^3/mm^3"}, {"measurement": "CRP, most recent", "setting": "[3]; Patient 4 (11 d on opaganib), baseline 24.8, Apr. 22, 2020", "value": "17.4 (Apr. 22, 2020) mg/L"}, {"measurement": "Clinical Assessment", "setting": "[3]; Patient 5 (2 d), started moderate on Apr. 13, 2020, nasal cannula, D/C = discharged, RA = room air", "value": "opaganib; D/C on Apr. 14, 2020 on RA"}, {"measurement": "Lymphocytes, most recent", "setting": "[3]; Patient 6 (5 d on opaganib), baseline 1.35, Apr. 24, 2020", "value": "1.96 (Apr. 24, 2020) 10^3/mm^3"}, {"measurement": "CRP, most recent", "setting": "[3]; Patient 6 (5 d on opaganib), baseline 12.2, Apr. 24, 2020", "value": "6.8 (Apr. 24, 2020) mg/L"}, {"measurement": "adverse event leading to discontinuation", "setting": "[3]; Patient 7, also on HCQ and azithromycin, may or may not be related to opaganib, all 3 meds stopped", "value": "Diarrhea the next day, all 3 meds were stopped, followed by worsening SOB, on 75% OptiFlow."}, {"measurement": "clinical improvement", "setting": "[3]; all 6 moderate to-severe patients (patient #7 excepted)", "value": "improved significantly"}, {"measurement": "C-Reactive Protein (CRP) change", "setting": "[3]; all six patients", "value": "reduction in C-Reactive Protein (CRP)"}, {"measurement": "time to ambient air", "setting": "[3]; cases, controls 14.5 days", "value": 13, "unit": "days"}, {"measurement": "median time to weaning from high-flow nasal cannula (HFNC)", "setting": "[3]; cases, controls 15 days, p=0.2", "value": 10, "unit": "days"}, {"measurement": "cases requiring mechanical ventilation", "setting": "[3]; compared with 33% of controls", "value": "none of the cases required mechanical ventilation"}, {"measurement": "increase in lymphocyte count vs matched control group", "setting": "[3]; five patients analysed vs same-sex, same-severity controls", "value": "significantly faster increase in lymphocyte count"}, {"measurement": "number of patients back to breathing room air", "setting": "[3]; [7]", "value": 5, "unit": "patients"}, {"measurement": "number of patients discharged from hospital", "setting": "[3]; [7]", "value": 3, "unit": "patients"}, {"measurement": "safety and tolerability", "setting": "[3]; small cohort of severe COVID-19 patients", "value": "safe and well tolerated"}, {"measurement": "proportion of patients reaching room air and no longer requiring oxygen support by Day 14", "setting": "[4]; opaganib 500 mg Q12 h + standard of care, control arm 22.2%", "value": 52.6, "unit": "%"}, {"measurement": "reduction from baseline of the medial total oxygen requirement (AUC) over 14 days", "setting": "[4]; opaganib 500 mg Q12 h + standard of care, control arm 46.7%", "value": 68.0, "unit": "%"}, {"measurement": "proportion of patients discharged by Day 14", "setting": "[4]; opaganib 500 mg Q12 h + standard of care, control arm 55.6%", "value": 73.7, "unit": "%"}, {"measurement": "proportion of patients with 50% reduction in supplemental oxygen by day 14", "setting": "[4]; opaganib 500 mg Q12 h + standard of care, control arm 66.7%", "value": 89.5, "unit": "%"}, {"measurement": "patients with adverse events such that study drug was terminated", "setting": "[4]; opaganib arm, one in placebo arm", "value": "Two"}, {"measurement": "patients with serious adverse events (SAEs) vs placebo arm", "setting": "[4]; opaganib treatment arm compared with placebo arm", "value": "fewer patients suffered from serious adverse events"}, {"measurement": "safety (top-line)", "setting": "[4]; vs placebo arm", "value": "safe, with no material safety differences"}, {"measurement": "cell viability", "setting": "[5]", "value": "remained viable"}]}
{"smiles": "O=C(NCc1ccncc1)C12CC3CC(C1)CC(c1ccc(Cl)cc1)(C3)C2", "note": "[ABC294640, 3-(4-chlorophenyl)-adamantane-1-carboxylic acid (pyridin-4-ylmethyl)amide]", "values": [{"measurement": "thrombosis (blood clot length, weight and total thrombus score)", "setting": "[6]", "value": "reduction of thrombosis"}]}
